Like-named read-outs stand apart in the source and are kept apart here.
Columns and labels:
[1] = tested on: acetylcholine induced bronchospasm; assay: Antibronchospastic activity (acetylcholine induced bronchospasm, Konzett-Rossler method); assay type: in vivo, guinea pigs; details: Cavia porcellus, im, read-out: ED50 (50% reduction of acetylcholine induced bronchospasm)
Text: The test has been carried out in anaesthesized adult guinea pigs under artificial respiration.

brain P.D.E. = assay: Antiphosphodiesterase activity, brain P.D.E.; assay type: biochemical, Wistar rats; details: rat brain, relative to theophylline
Text: (§1) The preparation of the enzyme from heart, lungs and brain of Wistar rats and the activity test of P.D.E. have been carried out according to the R. W. BUTCHER and E. W. […] (J. Biol. Chem. 237, 1244; 1962).

lung P.D.E. = assay: Antiphosphodiesterase activity, lung P.D.E.; assay type: biochemical, Wistar rats; details: rat lungs, relative to theophylline
Text: as §1

mouses = assay: Activity on CNS: reaction to subtoxic dose of cardiazole, mouses; assay type: in vivo; details: cardiazole i.p. 60-70 mg/Kg
rats = assay: Activity on CNS: reaction to subtoxic dose of cardiazole, rats; assay type: in vivo; details: cardiazole i.p. 60-70 mg/Kg
Acute toxicity = details: mouse, in vivo, male Swiss mouses about 20 g, empty since 16 hours, read-out: DL50 (the source's name)
Description: The compound has been administered either per os or by intravenous injection to male Swiss mouses having a weight of about 20 g, empty since 16 hours.

heart P.D.E. = assay: Antiphosphodiesterase activity, heart P.D.E.; assay type: biochemical, Wistar rats; details: rat heart, relative to theophylline
Text: as §1

guinea pigs = assay: Activity on CNS: reaction to subtoxic dose of cardiazole, guinea pigs; assay type: in vivo; details: cardiazole i.p. 60-70 mg/Kg
[2] = 0.5 h, 30' after intramuscular administration
[3] = 1 h, 60' after intramuscular administration
[4] = 1.5 h, 90' after intramuscular administration

Row | Structure (SMILES) | ED50 [1, 2] [µmol/kg] | ED50 [1, 3] [µmol/kg] | ED50 [1, 4] [µmol/kg] | activity against brain P.D.E. in comparison with theophylline (brain P.D.E.) | activity against lung P.D.E. in comparison with theophylline (lung P.D.E.) | % dead animals (mouses; 25 mg/kg S.C. (20')) [%] | % dead animals (mouses; 50 mg/kg S.C. (20')) [%] | % dead animals (mouses; 100 mg/kg S.C. (20')) [%] | % dead animals (rats; 50 mg/kg S.C. (20')) [%] | % dead animals (rats; 100 mg/kg S.C. (20')) [%] | LD50 (Acute toxicity; po, per os) [mg/kg] | LD50 (Acute toxicity; intravenous injection) [mg/kg] | activity against heart P.D.E. in comparison with theophylline (heart P.D.E.) | % dead animals (guinea pigs; 50 mg/kg S.C. (20')) [%] | % dead animals (guinea pigs; 100 mg/kg S.C. (20')) [%]
1 | CC(C)Cn1cnc2c1c(=O)n(C)c(=O)n2C [7-isobutyl theophylline, 1,3-dimethyl-7-isobutyl-xanthine] | 120 | 140 | 160 | twice more active | four times more active | 0 | 0 | 0 | 0 | 0 | 199 | 129 | four times more active | 0 | 0
2 | Cn1c(=O)c2[nH]cnc2n(C)c1=O [Theophylline, theophylline, reference compound] | 270 | 230 | 200 |  |  |  |  |  |  |  |  |  |  |  | 
